Assay results as given in US10468722B2, “Organic synthesis applications of non-aqueous fluoride salt solutions” (CALIFORNIA INSTITUTE OF TECHNOLOGY, priority 2015, dated 2019).

How the values were obtained:
physchem = conditions: for Solubility in fluorinated solvents (in words): 3-fluorobenzonitrile and BTFE, useful concentrations e.g. >0.05 M; for Solubility vs. TMAF: in 3-fluorobenzonitrile, relative to TMAF; for solubility: organic solvent or mixture
Method: NpMe3NF is determined to be soluble in a given solvent if the concentration of NpMe3NF dissolved within the solvent is greater than 0.05 M.

[1] = NpMe3NF stability in various solvents by 1H and 19F NMR; type: physicochemical
Method: NpMe3NF stability in various solvents is analyzed by ^1H and ^19F NMR measurements. Preliminary criteria used for a solvent being “chemically stable” to the F^− ion are observation of a clear, sharp peak in the ^19F spectrum, alongside a 1:1:1 triplet arising from the DF2^− formation from the deuterated acetonitrile solvent (CD3CN).

[2] = in 2,6-difluoropyridine (2,6-F2Py)
[3] = in 3-methoxypropionitrile (3-MeOPN)

## CC(C)(C)C[N+](C)(C)CC(C)(C)C.[F-] [Np2Me2NF, bis(2,2-dimethylpropyl)dimethylammonium fluoride]
physchem
  Solubility in fluorinated solvents (in words): significantly higher solubility
  Solubility vs. TMAF: >10x
  solubility: 340 mM

## CC(C)(C)C[N+](C)(C)C.[F-] [NpMe3NF, (2,2-dimethylpropyl)trimethylammonium fluoride]
physchem
  Solubility in fluorinated solvents (in words): significantly higher solubility
  Solubility vs. TMAF: >6x
  solubility: 190 mM
physchem; in 1,3-Dimethyl-3,4,5,6-tetrahydro-2(1H)-pyrimidinone (DMPU)
  Approximate Solubility: 110 mM
physchem; in 2,2,2-trifluoroethyl trifluoroacetate (TFE-TFA)
  Approximate Solubility: 950 mM
physchem; in 2,3-difluorobenzonitrile (2,3-F2BN)
  Approximate Solubility: 400 mM
physchem; [2]
  Approximate Solubility: 390 mM
physchem; in 2-fluorobenzonitrile (2-FBN)
  Approximate Solubility: 120 mM
physchem; in 3-fluorobenzonitrile (3-FBN)
  Approximate Solubility: 190 mM
physchem; [3]
  Approximate Solubility: 780 mM
physchem; in (Dimethylamino)acetonitrile (DMAN)
  Approximate Solubility: 140 mM
physchem; in Fluoroethylene carbonate (FEC)
  Approximate Solubility: 710 mM
physchem; in Tris(2,2,2-trifluoroethyl)phosphite (TTFP)
  Approximate Solubility: 1050 mM
physchem; in methoxyacetonitrile (MeOAN)
  Approximate Solubility: 800 mM
physchem; in phenyl trifluoroacetate (PhTFA)
  Approximate Solubility: 470 mM
physchem; in propionitrile (PN)
  Approximate Solubility: 70 mM
[1]; [2]
  Stability (1H and 19F NMR): good stability
[1]; [3]
  Stability (1H and 19F NMR): poor stability
[1]; in BTFE
  Stability (1H and 19F NMR): good stability
[1]; in Bis(2,2,2-trifluoroethyl) carbonate (BTFEC)
  Stability (1H and 19F NMR): poor stability
[1]; in propionitrile (PN)
  Stability (1H and 19F NMR): good stability
